Experimental data taken from patent publication US20250195468A1, “METHODS AND COMPOSITIONS FOR TREATING COLORECTAL CANCER WITH INDOXYL SULFATE” (National Institute of Immunology, priority 2023, published 2025).

Test system: Balb/c mice
Assay: Animal study: effect on normal colonic cells (organ length, body weight, histology, symptoms)
Settings: control groups (negative / positive control), 12 weeks
Protocol: Wild-type Balb/c mice were obtained from Jackson Laboratory, USA, and housed in plastic cages with free access to water and food. The mice were randomly assigned to five test groups, which included three control groups: vehicle control, negative control (100 mM sodium propionate), and positive control (AOM (Azoxymethane)/DSS). Additionally, there were two experimental groups receiving 100 mM of indoxyl sulfate, one via intraperitoneal (IP) administration and the other via intrarectal (IR) administration. Each group consisted of six mice. In the AOM/DSS group, AOM was injected intraperitoneally at a dosage of 10 mg/kg bodyweight. The AOM was injected only once on the 1st day of experiment. The positive control mice received 2% DSS for 7 days in the first week, fourth week, and seventh week. […]
The colon was collected from each mouse for subsequent histology studies. […] Various parameters, including tumor localization (proximal or distal bowel, rectum, cecum, ileocecal valve), tumor number, cancer stage (dysplasia/adenoma or adenocarcinoma, determined by infiltration into the muscular mucosa), immune cell infiltration, and inflammation, were assessed. Bowel inflammation was evaluated by observing immune cell infiltration and the presence or absence of mucous membranes using a 10× objective. […]

## CCC(=O)[O-].[Na+] [Propionate, sodium propionate]
  Length of large intestine (mean ± SD): 9.98 ± 0.67 cm
  Length of spleen (mean ± SD): 1.5 ± 0.08 cm
